Read-outs that look alike come from different tables or passages of the source.
Key:
[1] = biological target: T1, GR (Homo sapiens, UniProt P04150); experiment: GR Functional Assay - NFκB Assay (A549 SPAP cells, TNFα stimulated); type: cell-based; details: for Emax: agonists, read-out: average maximum asymptote in the NFkB assay
T1 construct: endogenous in cells; host or cells: A549 (human lung carcinoma, ECACC No. 86012804), stably transfected with reporter plasmids only
T1 sequence (P04150 1-777): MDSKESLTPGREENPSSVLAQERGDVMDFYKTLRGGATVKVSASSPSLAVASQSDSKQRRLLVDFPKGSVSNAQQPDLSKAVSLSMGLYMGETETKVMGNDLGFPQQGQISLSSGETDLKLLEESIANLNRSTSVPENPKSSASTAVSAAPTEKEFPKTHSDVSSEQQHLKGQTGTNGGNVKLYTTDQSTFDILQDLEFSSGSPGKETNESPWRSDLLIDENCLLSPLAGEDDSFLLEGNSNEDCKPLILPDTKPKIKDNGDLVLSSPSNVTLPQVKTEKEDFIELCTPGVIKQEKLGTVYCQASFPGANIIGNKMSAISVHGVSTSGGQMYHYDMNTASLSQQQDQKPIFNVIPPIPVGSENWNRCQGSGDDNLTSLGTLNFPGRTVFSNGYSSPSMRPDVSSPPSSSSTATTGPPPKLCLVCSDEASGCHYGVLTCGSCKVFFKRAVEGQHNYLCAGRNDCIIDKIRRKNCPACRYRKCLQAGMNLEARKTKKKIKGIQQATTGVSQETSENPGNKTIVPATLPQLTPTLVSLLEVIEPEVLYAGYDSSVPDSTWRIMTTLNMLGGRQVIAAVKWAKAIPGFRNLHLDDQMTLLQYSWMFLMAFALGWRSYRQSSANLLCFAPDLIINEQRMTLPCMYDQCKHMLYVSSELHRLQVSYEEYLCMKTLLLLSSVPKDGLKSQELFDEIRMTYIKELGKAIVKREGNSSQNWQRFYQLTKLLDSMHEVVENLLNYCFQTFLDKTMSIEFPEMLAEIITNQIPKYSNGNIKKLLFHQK
Outline: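 Stably transfected A549 SPAP cells at 0.16×10^6/ml in DMEM with 10% FCS were added to compound and stimulated with TNFα to drive NFκB-dependent SPAP expression. After 1 hr equilibration at room temperature, SPAP was read colorimetrically with pNPP in diethanolamine buffer, pH 9.8.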

[2] = biological target: T2, Progesterone Receptor (Homo sapiens, UniProt P06401); experiment: Assay for Progesterone Receptor Agonist Activity (CV-1 cells, PRb-BacMam, MMTV-BacMam); type: cell-based; details: at least once in this assay, read-out: progesterone receptor agonist pEC50 (converted)
T2 construct: expressed in transfected cells; host or cells: CV-1 cells transduced with PRb-BacMam and MMTV-BacMam
T2 sequence (P06401 1-933): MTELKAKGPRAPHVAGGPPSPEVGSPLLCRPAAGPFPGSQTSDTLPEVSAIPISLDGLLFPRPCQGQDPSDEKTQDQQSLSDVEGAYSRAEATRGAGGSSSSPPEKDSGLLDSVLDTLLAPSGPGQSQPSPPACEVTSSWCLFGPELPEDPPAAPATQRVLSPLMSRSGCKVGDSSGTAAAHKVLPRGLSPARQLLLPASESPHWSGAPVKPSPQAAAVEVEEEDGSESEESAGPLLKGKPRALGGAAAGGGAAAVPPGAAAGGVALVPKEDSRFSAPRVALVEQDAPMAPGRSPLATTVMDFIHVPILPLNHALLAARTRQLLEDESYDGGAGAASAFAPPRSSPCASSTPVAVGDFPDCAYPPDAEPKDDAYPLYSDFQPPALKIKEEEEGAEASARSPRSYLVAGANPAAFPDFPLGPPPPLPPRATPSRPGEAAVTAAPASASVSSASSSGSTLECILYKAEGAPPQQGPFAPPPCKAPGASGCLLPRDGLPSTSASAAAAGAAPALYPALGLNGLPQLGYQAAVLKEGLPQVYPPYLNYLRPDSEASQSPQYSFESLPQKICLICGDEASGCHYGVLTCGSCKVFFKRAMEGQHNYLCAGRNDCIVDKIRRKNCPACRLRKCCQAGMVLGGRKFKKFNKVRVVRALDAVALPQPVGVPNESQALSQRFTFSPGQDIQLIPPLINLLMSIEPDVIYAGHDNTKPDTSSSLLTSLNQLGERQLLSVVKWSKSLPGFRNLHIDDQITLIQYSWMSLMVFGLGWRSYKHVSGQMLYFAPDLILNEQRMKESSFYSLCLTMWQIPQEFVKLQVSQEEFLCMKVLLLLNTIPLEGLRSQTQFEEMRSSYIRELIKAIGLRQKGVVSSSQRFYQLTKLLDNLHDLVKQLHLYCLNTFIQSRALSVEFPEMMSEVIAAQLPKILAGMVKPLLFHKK

[3] = at least once in the NFkB assay, A549 SPAP cells, read-out: pIC50 in the NFkB assay (converted)
[4] = at least once, examples listed as agonists in NFkB and MMTV assays, read-out: potency pIC50 in the NFKB assay (converted)

SMILES	Emax ([1]; A549 SPAP cells)	IC50 [1, 3]	IC50 [1, 4]	EC50 [2]
Nc1c(C(=O)NCC(O)(CN(CCF)C(=O)c2ccccc2)C(F)(F)F)cnn1-c1ccc(F)cc1 (racemic) [Example 1 (racemic), 5-Amino-1-(4-fluorophenyl)-N-(3,3,3-trifluoro-2-{[(2-fluoroethyl)(phenylcarbonyl)amino]methyl}-2-hydroxypropyl)-1H-pyrazole-4-carboxamide]	≥ 40%	< 1000 nM	< 316 nM	> 1000 nM
Nc1c(C(=O)NCC(O)(CN(CCF)C(=O)c2ccccc2F)C(F)(F)F)cnn1-c1ccc(F)cc1 (racemic) [Example 2 (racemic), 5-Amino-1-(4-fluorophenyl)-N-[3,3,3-trifluoro-2-([(2-fluoroethyl)[(2-fluorophenyl)carbonyl]amino]methyl)-2-hydroxypropyl]-1H-pyrazole-4-carboxamide]	≥ 40%	< 1000 nM	< 316 nM	> 1000 nM
CCN(CC(O)(CNC(=O)c1cnn(-c2ccc(F)cc2)c1N)C(F)(F)F)C(=O)c1cccc(F)c1F (racemic) [Example 5 (racemic), 5-Amino-N-(2-{[[(2,3-difluorophenyl)carbonyl](ethyl)amino]methyl}-3,3,3-trifluoro-2-hydroxypropyl)-1-(4-fluorophenyl)-1H-pyrazole-4-carboxamide]	≥ 40%	< 1000 nM	< 316 nM	> 1000 nM

From patent publication US20100035926A1, “PYRAZOLE DERIVATIVES AS NON-STEROIDAL GLUCOCORTICOID RECEPTOR LIGANDS” (priority 2006, published 2010)
